Results taken from paper PMC6858323, “Multiple conformations facilitate PilT function in the type IV pilus” (Nature Communications, 2019).

Key:
[1] = target: T1, PilT^Gm (PilT4 from Geobacter metallireducens) (Geobacter metallireducens, UniProt Q39VU6); assay: X-ray crystal structure (anisotropic, about […] A); settings: 2 mM ANP, 2 mM MgCl2, pH 7.9 reservoir; four of six nucleotide-binding sites, ADP in the other two; CCOCCO conformation
T1 construct: gene pilT-4; hexamer; domains N2D residues 1-100, CTD 101-353
T1 sequence (Q39VU6 entry or part of it): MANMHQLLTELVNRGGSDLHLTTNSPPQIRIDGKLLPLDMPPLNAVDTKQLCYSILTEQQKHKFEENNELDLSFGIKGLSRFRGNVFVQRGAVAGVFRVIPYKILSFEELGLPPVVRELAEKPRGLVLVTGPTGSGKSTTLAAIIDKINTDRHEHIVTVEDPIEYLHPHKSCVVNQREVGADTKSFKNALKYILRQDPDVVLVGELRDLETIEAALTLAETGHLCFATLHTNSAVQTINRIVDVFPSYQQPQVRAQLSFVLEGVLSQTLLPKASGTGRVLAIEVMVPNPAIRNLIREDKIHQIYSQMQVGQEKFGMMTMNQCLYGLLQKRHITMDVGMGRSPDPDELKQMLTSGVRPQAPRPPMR

[2] = target: T1, PilT^Gm (PilT4 from Geobacter metallireducens); assay: X-ray crystal structure (OCOCOC); settings: preincubated with Mg2+ and ATP, unbound nucleotide removed, pH 7.6; nucleotide-binding site

| SMILES | X-ray crystal structure (anisotropic, about 4.0 A) [1] | X-ray crystal structure (OCOCOC) [2] |
| --- | --- | --- |
| Nc1ncnc2c1ncn2[C@@H]1O[C@H](COP(=O)(O)OP(=O)(O)NP(=O)(O)O)[C@@H](O)[C@H]1O [ANP] | density consistent with ANP could be modeled into four of the six nucleotide-binding sites |  |
| Nc1ncnc2c1ncn2[C@@H]1O[C@H](COP(=O)(O)OP(=O)(O)O)[C@@H](O)[C@H]1O [ADP] |  | An isomorphous structure with high ADP occupancy was obtained |
